# Test results published in US10654834B2 (Venenum Biodesign, LLC, priority 2016, dated 2020).
# What was measured:
# Type in all cases: in vivo, mouse
# [1] = system: GLP-1; test: GLP-1 levels after 6 weeks of dosing in DIO mice; conditions: 30 mg/kg + sitagliptin 10 mg/kg BID, 6 h after final dose, versus sitagliptin alone
# Excerpt: (§1) In the next series of studies (Examples 93-99), Male DIO mice were received at 12 weeks of age (from Taconic), and were single-housed at the testing facility and acclimated for at least 2 weeks. The mice were provided a high fat diet [Research Diet D12492 (60% Fat kcal)] while in the testing facility. Before the study initiation, the animals were randomized into 5 experimental groups by body weight. The vehicle group contained only 0.5% carboxymethylcellulose (medium viscosity)+0.25% Tween-80. The second group contained 10 mg/kg of the DPP-IV inhibitor Sitagliptin while the third group contained 30 mg/kg Compound 268. The fourth group contained the combination of 10 mg/kg Sitagliptin and 30 mg/kg Compound 268. The fifth group was the positive control for weight loss, Rimonabant. All mice were dosed BID at approximately 6:00 am and again at approximately 4:00 pm. The positive control rimonabant was administered at a dose of 10 mg/kg in the afternoon and the morning dosing was vehicle (no compound). […]
# Compounds of the present invention were dosed for multiple weeks and were evaluated to determine if they produce sustained GLP-1 levels.
# In this example, the protocol from Example 93 was utilized. […] The active form of GLP-1 [GLP-1 (7-36) amide] was analyzed using Meso Scale Discovery System according to the manufacturer's directions (item number K150HYC). […]
# [2] = Plasma concentration of compound in DIO mice over 24 hours; conditions: 30 mg/kg p.o. + sitagliptin 10 mg/kg, 6, 12, 18, 24 h
# Experimental: Plasma Concentration of Compound in Mice
# In these studies, the plasma concentration of the compounds of the present invention was measured in DIO mice as well as lean C57BL/6N mice.
# In the first study, (data represented in FIG. 10), plasma concentration levels were measured over a 24 hour time period in DIO mice. Following the treatment with the compound, the blood was collected via cardiac puncture at 6, 12, 18, and 24 hours. The blood samples (>250 μL) were placed in an EDTA K^2+ tube and plasma was processed for analytical chemistry and analyzed by LCMS/MS method as described in Example 81. FIG. 10 depicts the plasma concentrations of Compound 268 after oral administration at 30 mg/kg in combination with 10° mg/kg sitagliptin. The plasma concentrations of Compound 268 were below 10 nM at every tested time points.
# [3] = Plasma concentrations after chronic dosing (5 days) in DIO mice; conditions: after second and tenth dose, 0-12 h
# Experimental: Plasma Concentrations after Chronic Dosing of Compound
# In the study, the plasma level of compounds of the present invention (i.e., Compound 268) was monitored at day 1 and day 5. The same animal protocol as described in Examples 87 and 88 was utilized.
# FIG. 14 depicts the plasma concentration of Compound 268 at 0, 3, 6, 9, and 12 hours after the second and at 3, 6, 9, and 12 hours after the tenth dose. […] No significant increases were observed over time.
# [4] = Bile weight after chronic dosing (5 days) in DIO mice; conditions: 30 mg/kg + sitagliptin 10 mg/kg, after second and tenth treatment, versus sitagliptin alone
# Experimental: Bile Weight after Chronic Dosing of Compounds
# In this study, chronic dosing of compounds of the present invention was examined to determine if they lead to an increase in bile weight.
# FIG. 13 depicts the time course of bile weight changes over time (i.e., 0, 3, 6, 9, and 12 hours) after the second and the tenth treatment with Compound 268 using the protocol in Example 87.
# [5] = Bile weight in lean C57BL/6N mice after OGTT; conditions: 30 mg/kg + sitagliptin 3 mg/kg p.o., 6 h, versus sitagliptin alone
# Experimental: In addition, bile weight was determined in the OGTT study on lean mice described in Example 84 above. At the end of that study, bile was removed from the gallbladder and weighed to approximate volume of bile contained within the gallbladder.
# FIG. 7 depicts bile weight in DIO mice at 6, 12, 18, and 24 hours after oral administration of 10 mg/kg sitagliptin alone or 10 mg/kg sitagliptin+30 mg/kg Compound 268. FIG. 8 depicts the comparison in bile weight between sitagliptin (3 mg/kg, p.o.) and Compound 268 (30 mg/kg, p.o.)+sitagliptin (3 mg/kg, p.o.) following an OGTT assay in lean C57BL/6N mice, 6 hours after treatment. FIG. 9 illustrates plasma GLP-1 levels from the DIO mice at the same time points.
# [6] = system: blood glucose; test: OGTT and insulin measurements after 5 weeks of dosing in DIO mice
# Excerpt: as §1
# Compounds of the present invention were dosed for multiple weeks and were evaluated for their effectiveness in glycemic control. […] Insulin is also analyzed using Meso Scale Discovery according to the manufacturer's directions (item number K152BZC). Plasma samples ([…]) were loaded in duplicate onto the assay plate and measured against internal standards.
smiles,measurement,setting,value
"N#Cc1ccc(CCNC(=O)[C@@H]2CCN2c2cc(N3CCC(CCNC(=O)NCCC(=O)O)CC3)nc(C(F)(F)F)n2)cc1 [Compound 268, (S)-3-(3-(2-(1-(6-(2-((4-cyanophenethyl)carbamoyl)azetidin-1-yl)-2-(trifluoromethyl)pyrimidin-4-yl)piperidin-4-yl)ethyl)ureido)propanoic acid]",plasma GLP-1 level after 6 weeks of dosing,[1],significantly increased level of GLP-1
same,plasma concentration of compound,[2],below 10 nM
same,plasma level of compound after chronic dosing,[3],maintained at a low concentration level
same,bile weight after chronic dosing,[4],no significant changes in bile weight
same,bile weight,[5],no significant differences in bile weight
same,glucose levels in OGTT after 5 weeks of dosing,"[6]; 30 mg/kg + sitagliptin 10 mg/kg BID, versus vehicle",reduced the glucose levels relative to vehicle
same,insulin levels in OGTT after 5 weeks of dosing,[6]; BID dosing,increased the sensitivity of the mice to insulin
